Assays:
PDGFRβ = PDGFRβ (Rattus norvegicus (Rat), UniProt Q05030); assay: PDGFRβ Cellular Assay (PDGFRb P-Y751 HTRF in A10 cells stimulated with PDGF-BB); format: cell-based; settings: read-out: PDGFR Cellular IC50
In short: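 Phospho-Y751 PDGFRβ was measured by HTRF in lysates of A10 rat cells. Cells received compound for 3 hours before PDGF-BB stimulation (100 ng/mL working stock).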

[1] = molecular target: Tb-labeled inactive PDGFRβ (Homo sapiens (Human), UniProt P09619); assay: PDGFRβ LanthaScreen Assay; format: binding; settings: read-out: PDGFR Lantha IC50
Tb-labeled inactive PDGFRβ, sequence (P09619 33-1106): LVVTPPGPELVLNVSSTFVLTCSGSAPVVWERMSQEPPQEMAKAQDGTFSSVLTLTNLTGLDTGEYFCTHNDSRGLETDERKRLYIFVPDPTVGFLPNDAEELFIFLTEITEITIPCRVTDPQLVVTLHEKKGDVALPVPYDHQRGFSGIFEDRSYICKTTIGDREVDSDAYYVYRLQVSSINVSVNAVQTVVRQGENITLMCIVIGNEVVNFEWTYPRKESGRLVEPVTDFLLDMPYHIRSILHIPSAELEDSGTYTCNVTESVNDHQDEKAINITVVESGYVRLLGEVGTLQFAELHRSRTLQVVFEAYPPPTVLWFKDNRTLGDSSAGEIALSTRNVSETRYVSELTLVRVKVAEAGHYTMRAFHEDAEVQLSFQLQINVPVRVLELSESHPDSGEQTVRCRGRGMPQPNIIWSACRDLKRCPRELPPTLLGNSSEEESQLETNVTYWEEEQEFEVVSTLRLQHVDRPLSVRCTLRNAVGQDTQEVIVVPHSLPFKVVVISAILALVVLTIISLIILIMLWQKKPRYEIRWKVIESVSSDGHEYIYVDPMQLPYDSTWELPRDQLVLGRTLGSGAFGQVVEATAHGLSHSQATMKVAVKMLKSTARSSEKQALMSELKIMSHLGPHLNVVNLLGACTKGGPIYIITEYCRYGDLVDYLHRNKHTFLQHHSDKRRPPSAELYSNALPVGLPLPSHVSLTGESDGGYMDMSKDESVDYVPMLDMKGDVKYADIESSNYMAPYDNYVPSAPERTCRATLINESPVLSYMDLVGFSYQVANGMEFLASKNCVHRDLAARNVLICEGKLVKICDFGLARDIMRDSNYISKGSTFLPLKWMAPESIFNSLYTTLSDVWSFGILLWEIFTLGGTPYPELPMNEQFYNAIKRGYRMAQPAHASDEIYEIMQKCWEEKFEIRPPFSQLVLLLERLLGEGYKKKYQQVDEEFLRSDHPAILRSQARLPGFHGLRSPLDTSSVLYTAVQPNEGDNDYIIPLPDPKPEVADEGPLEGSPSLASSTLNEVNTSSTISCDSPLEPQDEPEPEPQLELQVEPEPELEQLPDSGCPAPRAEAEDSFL

VEGFR2, unphosphorylated = VEGFR2, unphosphorylated (Homo sapiens (Human), UniProt P35968); assay: VEGFR ADP GLO Assay; format: biochemical
VEGFR2, unphosphorylated, sequence (P35968 20-1356): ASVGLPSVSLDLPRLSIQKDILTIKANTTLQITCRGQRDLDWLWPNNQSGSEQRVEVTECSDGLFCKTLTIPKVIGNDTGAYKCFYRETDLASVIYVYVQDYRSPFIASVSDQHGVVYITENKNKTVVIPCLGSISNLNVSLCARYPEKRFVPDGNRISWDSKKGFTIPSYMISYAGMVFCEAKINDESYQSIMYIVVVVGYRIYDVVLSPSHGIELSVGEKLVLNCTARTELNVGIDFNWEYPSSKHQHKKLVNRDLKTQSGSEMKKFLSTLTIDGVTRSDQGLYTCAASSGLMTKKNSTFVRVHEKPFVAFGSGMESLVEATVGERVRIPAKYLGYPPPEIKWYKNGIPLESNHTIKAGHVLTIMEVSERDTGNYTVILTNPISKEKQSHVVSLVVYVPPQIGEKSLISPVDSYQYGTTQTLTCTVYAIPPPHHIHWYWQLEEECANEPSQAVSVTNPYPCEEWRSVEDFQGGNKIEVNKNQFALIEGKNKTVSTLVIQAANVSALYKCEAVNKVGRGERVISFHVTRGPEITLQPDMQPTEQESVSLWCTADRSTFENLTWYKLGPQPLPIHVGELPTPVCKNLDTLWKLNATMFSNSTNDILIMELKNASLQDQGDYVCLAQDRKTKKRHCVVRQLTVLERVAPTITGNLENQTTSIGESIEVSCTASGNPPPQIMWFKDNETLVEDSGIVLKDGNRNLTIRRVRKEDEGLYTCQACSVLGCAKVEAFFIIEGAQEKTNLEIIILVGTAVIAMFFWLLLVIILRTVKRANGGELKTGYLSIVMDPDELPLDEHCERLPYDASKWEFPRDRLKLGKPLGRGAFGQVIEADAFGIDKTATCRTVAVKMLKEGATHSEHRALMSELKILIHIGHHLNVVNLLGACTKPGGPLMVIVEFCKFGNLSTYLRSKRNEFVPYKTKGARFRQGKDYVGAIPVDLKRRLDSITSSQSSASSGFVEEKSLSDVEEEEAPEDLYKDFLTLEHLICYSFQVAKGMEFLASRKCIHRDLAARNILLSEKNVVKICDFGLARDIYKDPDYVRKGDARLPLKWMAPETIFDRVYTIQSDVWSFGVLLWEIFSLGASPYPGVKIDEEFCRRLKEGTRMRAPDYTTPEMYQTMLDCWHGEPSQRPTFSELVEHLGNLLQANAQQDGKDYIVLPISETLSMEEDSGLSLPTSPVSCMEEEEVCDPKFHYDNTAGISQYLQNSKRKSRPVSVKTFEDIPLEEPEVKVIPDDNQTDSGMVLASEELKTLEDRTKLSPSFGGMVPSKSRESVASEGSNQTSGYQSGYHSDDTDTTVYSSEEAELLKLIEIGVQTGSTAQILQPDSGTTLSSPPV

PDGFRβ, sequence (Q05030 32-1097): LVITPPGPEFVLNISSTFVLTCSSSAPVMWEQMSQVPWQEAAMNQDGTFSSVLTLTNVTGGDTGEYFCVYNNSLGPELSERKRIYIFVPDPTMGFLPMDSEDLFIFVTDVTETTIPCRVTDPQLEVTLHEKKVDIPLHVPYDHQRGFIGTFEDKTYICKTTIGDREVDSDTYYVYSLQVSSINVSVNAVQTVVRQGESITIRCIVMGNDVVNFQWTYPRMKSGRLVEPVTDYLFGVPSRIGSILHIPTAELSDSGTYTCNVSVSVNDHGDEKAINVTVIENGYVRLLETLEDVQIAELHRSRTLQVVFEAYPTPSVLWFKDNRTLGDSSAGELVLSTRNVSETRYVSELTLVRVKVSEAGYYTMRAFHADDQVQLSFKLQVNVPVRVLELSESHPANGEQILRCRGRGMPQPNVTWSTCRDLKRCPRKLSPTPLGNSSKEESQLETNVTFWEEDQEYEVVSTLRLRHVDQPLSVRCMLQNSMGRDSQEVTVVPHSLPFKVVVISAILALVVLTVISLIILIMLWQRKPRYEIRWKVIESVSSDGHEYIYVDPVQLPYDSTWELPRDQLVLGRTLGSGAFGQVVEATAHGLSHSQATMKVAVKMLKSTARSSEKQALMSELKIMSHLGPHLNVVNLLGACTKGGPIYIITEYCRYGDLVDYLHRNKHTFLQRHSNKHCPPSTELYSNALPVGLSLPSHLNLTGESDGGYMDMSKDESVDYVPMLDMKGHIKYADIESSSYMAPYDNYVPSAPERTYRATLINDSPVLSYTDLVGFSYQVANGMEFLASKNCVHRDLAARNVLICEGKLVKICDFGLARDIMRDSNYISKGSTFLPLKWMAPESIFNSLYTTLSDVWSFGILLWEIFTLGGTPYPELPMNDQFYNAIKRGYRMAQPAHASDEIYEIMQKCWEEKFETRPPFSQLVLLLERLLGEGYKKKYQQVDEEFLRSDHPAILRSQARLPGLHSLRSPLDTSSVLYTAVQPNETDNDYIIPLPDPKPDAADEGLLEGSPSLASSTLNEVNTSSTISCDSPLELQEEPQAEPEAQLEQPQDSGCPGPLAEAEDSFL

| SMILES | IC50 (PDGFRβ) [nM] | IC50 [1] [nM] | IC50 (VEGFR2, unphosphorylated) [µM] |
| --- | --- | --- | --- |
| Cc1ncc(NC(=O)CN2CCn3ccnc3C2)cc1NC(=O)c1cnn2cc(-c3cnn(C)c3)sc12 [Example 75, N-(5-(2-(5,6-dihydroimidazo[1,2-a]pyrazin-7 (8H)-yl)acetamido)-2-methylpyridin-3-yl)-2-(1-methyl-1H-pyrazol-4-yl)pyrazolo[5,1-b]thiazole-7-carboxamide] | 2750 | 47 | > 7.5 |
| Cc1ncc(NC(=O)CN2Cc3ncsc3C2)cc1NC(=O)c1cnn2cc(-c3cnn(C)c3)sc12 [Example 76, N-(5-(2-(4H-pyrrolo[3,4-d]thiazol-5 (6H)-yl)acetamido)-2-methylpyridin-3-yl)-2-(1-methyl-1H-pyrazol-4-yl)pyrazolo[5,1-b]thiazole-7-carboxamide] | 36.9 | 8.9 | > 7.5 |
| Cc1ncc(NC(=O)CN2Cc3ccncc3C2)cc1NC(=O)c1cnn2cc(-c3cnn(C)c3)sc12 [Example 77, N-(5-(2-(1H-pyrrolo[3,4-c]pyridin-2 (3H)-yl)acetamido)-2-methylpyridin-3-yl)-2-(1-methyl-1H-pyrazol-4-yl)pyrazolo[5,1-b]thiazole-7-carboxamide] | 78.9 | 15.9 | > 7.5 |
| Cc1ncc(NC(=O)CN2CCOCC23CCC3)cc1NC(=O)c1cnn2cc(-c3cnn(C)c3)sc12 [Example 78, N-(5-(2-(8-oxa-5-azaspiro[3.5]nonan-5-yl)acetamido)-2-methylpyridin-3-yl)-2-(1-methyl-1H-pyrazol-4-yl)pyrazolo[5,1-b]thiazole-7-carboxamide] | 12.1 | 5.7 | > 7.5 |
| COCC1CCCN1CC(=O)Nc1cnc(C)c(NC(=O)c2cnn3cc(-c4cnn(C)c4)sc23)c1 (stereo not drawn) [Example 79, N-(5-(2-(2-(methoxymethyl)pyrrolidin-1-yl)acetamido)-2-methylpyridin-3-yl)-2-(1-methyl-1H-pyrazol-4-yl)pyrazolo[5,1-b]thiazole-7-carboxamide] | 12.6 | 10.9 | > 7.5 |
| Cc1ncc(NC(=O)CN2CCCOCC2)cc1NC(=O)c1cnn2cc(-c3cnn(C)c3)sc12 [Example 80, N-(5-(2-(1,4-oxazepan-4-yl)acetamido)-2-methylpyridin-3-yl)-2-(1-methyl-1H-pyrazol-4-yl)pyrazolo[5,1-b]thiazole-7-carboxamide] | 37.8 | 19.3 | > 7.5 |
| Cc1ncc(NC(=O)CN2CCC3(CCO3)CC2)cc1NC(=O)c1cnn2cc(-c3cnn(C)c3)sc12 [Example 81, N-(5-(2-(1-oxa-7-azaspiro[3.5]nonan-7-yl)acetamido)-2-methylpyridin-3-yl)-2-(1-methyl-1H-pyrazol-4-yl)pyrazolo[5,1-b]thiazole-7-carboxamide] | 79.8 | 76.8 | > 7.5 |
| Cc1ncc(NC(=O)CN2CCC2(C)C)cc1NC(=O)c1cnn2cc(-c3cnn(C)c3)sc12 [Example 82, N-(5-(2-(2,2-dimethylazetidin-1-yl)acetamido)-2-methylpyridin-3-yl)-2-(1-methyl-1H-pyrazol-4-yl)pyrazolo[5,1-b]thiazole-7-carboxamide] | 12.5 | 24.3 | > 7.5 |
| COC1CCN(CC(=O)Nc2cnc(C)c(NC(=O)c3cnn4cc(-c5cnn(C)c5)sc34)c2)CC1 [Example 83, N-(5-(2-(4-methoxypiperidin-1-yl)acetamido)-2-methylpyridin-3-yl)-2-(1-methyl-1H-pyrazol-4-yl)pyrazolo[5,1-b]thiazole-7-carboxamide] | 44.1 | 35 | > 7.5 |
| Cc1ncc(NC(=O)CN2CCC[C@@H]2C)cc1NC(=O)c1cnn2cc(-c3cnn(CCO)c3)sc12 [Example 84, (S)-2-(1-(2-hydroxyethyl)-1H-pyrazol-4-yl)-N-(2-methyl-5-(2-(2-methylpyrrolidin-1-yl)acetamido)pyridin-3-yl)pyrazolo[5,1-b]thiazole-7-carboxamide] | 40.2 | 10.9 | > 7.5 |
